From US20240116985A1, “STAPLED PEPTIDES AND METHODS THEREOF” (priority 2020, published 2024) come the findings set out here.

Structures are written as SMILES. Where two headings read alike, the source gives them in different places.

For experiment [1], the target named is T1, full-length beta-Catenin (Uniprot ID P35222) (Homo sapiens, UniProt P35222).
T1 construct: 10 nM full-length beta-Catenin (Uniprot ID P35222)
T1 sequence (P35222 1-781): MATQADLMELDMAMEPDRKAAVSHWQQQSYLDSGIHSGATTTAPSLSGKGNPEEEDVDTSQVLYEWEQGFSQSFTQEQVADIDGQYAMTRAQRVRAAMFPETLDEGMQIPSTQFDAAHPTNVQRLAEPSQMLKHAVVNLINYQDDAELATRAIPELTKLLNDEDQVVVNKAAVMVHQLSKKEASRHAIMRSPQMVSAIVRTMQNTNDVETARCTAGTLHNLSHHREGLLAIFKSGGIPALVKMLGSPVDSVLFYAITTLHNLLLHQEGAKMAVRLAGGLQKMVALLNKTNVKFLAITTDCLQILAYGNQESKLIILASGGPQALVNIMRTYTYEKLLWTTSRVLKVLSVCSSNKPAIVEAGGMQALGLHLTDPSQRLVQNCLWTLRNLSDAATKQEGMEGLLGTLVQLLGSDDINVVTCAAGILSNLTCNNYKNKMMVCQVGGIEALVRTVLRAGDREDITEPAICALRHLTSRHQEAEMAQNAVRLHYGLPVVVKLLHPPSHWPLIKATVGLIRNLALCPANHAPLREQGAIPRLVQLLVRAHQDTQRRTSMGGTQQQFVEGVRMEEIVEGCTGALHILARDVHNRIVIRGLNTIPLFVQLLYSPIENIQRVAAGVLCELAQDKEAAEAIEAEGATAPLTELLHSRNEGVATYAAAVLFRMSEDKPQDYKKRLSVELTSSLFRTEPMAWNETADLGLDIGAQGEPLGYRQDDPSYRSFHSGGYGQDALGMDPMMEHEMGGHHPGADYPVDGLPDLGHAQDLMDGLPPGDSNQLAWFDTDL
The experiment can be described thus: Fluorescence polarization IC50 (beta-catenin / 5FAM-TCF4 10-53 competition). The class given is binding. (Fluorescence polarisation rises when a labelled molecule tumbles more slowly, as on binding a larger partner.)

The target in experiment [2] is T2, beta-catenin/TCF4 engagement (Homo sapiens, UniProt P35222).
T2 construct: expressed in transfected cells; host or cells: HEK293
T2 sequence (P35222 1-781): T1 sequence (P35222 1-781)
The experiment can be described thus: Nano-BRET target engagement assay (B-cat-Halo & TCF4-Luc in HEK293 cells). As to conditions: read-out: NanoBRET Abs IC50. The class given is cell-based. Background: In BRET a luciferase serves as donor, and the signal depends on an acceptor being close.

The mark [3] stands for this setting: fluorescence polarization; read-out: beta-Catenin FP IC50.
Where [4] appears, read: read-out: beta-Catenin FP IC50; fluorescence polarization.

The term IC50 denotes the concentration that gives 50% inhibition. As to `CC(=O)N1CCC[C@]12CC=CCCCC1(CCCC=CCCCOC(=O)N3CC[C@@](C(=O)N[C@@H](Cc4ccsc4)C(=O)N[C@@H](Cc4csc5ccccc45)C(=O)N[C@@H](CCC(N)=O)C(N)=O)(C3)NC(=O)[C@H](CC(C)C)NC(=O)[C@H](Cc3ccccc3)NC(=O)[C@H](C)NC(=O)[C@H](C)NC(=O)[C@H](CCC(=O)S)NC(=O)[C@H](CC(=O)O)NC1=O)NC(=O)[C@H](CC(C)(C)C)NC(=O)[C@H](CC(=O)O)NC2=O` (stereo partly drawn) [I-1949, Ac-PL3-Asp-Npg-B5-Asp-GluSH-Ala-Ala-Phe-Leu-PyrS2-3Thi-BztA-Gln-NH2], the IC50 came out at 0.096 µM in experiment [1] (setting [3]) and 28.5 µM in experiment [2].
Take `CC(=O)N1CCC[C@]12CC=CCCCC1(CCCC=CCCCOC(=O)N3CC[C@@](C(=O)N[C@@H](Cc4ccsc4)C(=O)N[C@@H](Cc4csc5ccccc45)C(=O)N[C@@H](CCC(N)=O)C(N)=O)(C3)NC(=O)[C@H](CC(C)C)NC(=O)[C@H](Cc3ccccc3)NC(=O)[C@H](C)NC(=O)[C@H](C)NC(=O)[C@H](CCC(=O)OCCSSc3ccccn3)NC(=O)[C@H](CC(=O)O)NC1=O)NC(=O)[C@H](CC(C)(C)C)NC(=O)[C@H](CC(=O)O)NC2=O` (stereo partly drawn) [I-1951, Ac-PL3-Asp-Npg-B5-Asp-[EtSSpy]GluE-Ala-Ala-Phe-Leu-PyrS2-3Thi-BztA-Gln-NH2]: the IC50 in experiment [1] (setting [3]) was 0.264 µM; in experiment [2], > 20 µM.
Consider `CC(=O)N1CCC[C@]12CC=CCCCC1(CCCC=CCCCOC(=O)N3CC[C@@](C(=O)N[C@@H](Cc4ccsc4)C(=O)N[C@@H](Cc4csc5ccccc45)C(=O)N[C@@H](CCC(N)=O)C(N)=O)(C3)NC(=O)[C@H](CC(C)C)NC(=O)[C@H](Cc3ccccc3)NC(=O)[C@H](C)NC(=O)[C@H](C)NC(=O)[C@H](CC(=O)O)NC(=O)[C@H](CC(=O)O)NC1=O)NC(=O)[C@H](CC(C)(C)C)NC(=O)[C@H](CC(=O)OCCSSc1ccccc1)NC2=O` (stereo partly drawn) [I-1952, Ac-PL3-[EtSSPh]AspE-Npg-B5-Asp-Asp-Ala-Ala-Phe-Leu-PyrS2-3Thi-BztA-Gln-NH2], for which the results for the IC50 in experiment [1] (setting [4]) and in experiment [2] were 0.923 µM and > 20 µM, respectively.
In the same order, the values of `CC(=O)N1CCC[C@]12CC=CCCCC1(CCCC=CCCCOC(=O)N3CC[C@@](C(=O)N[C@@H](Cc4ccsc4)C(=O)N[C@@H](Cc4csc5ccccc45)C(=O)N[C@@H](CCC(N)=O)C(N)=O)(C3)NC(=O)[C@H](CC(C)C)NC(=O)[C@H](Cc3ccccc3)NC(=O)[C@H](C)NC(=O)[C@H](C)NC(=O)[C@H](CC(=O)O)NC(=O)[C@H](CC(=O)O)NC1=O)NC(=O)[C@H](CC(C)(C)C)NC(=O)[C@H](CC(=O)OCCSSc1ccccc1)NC2=O` (stereo partly drawn) [I-1953, Ac-PL3-[EtSSPh]AspE-Npg-B5-Asp-Asp-Ala-Ala-Phe-Leu-PyrS2-3Thi-BztA-Gln-NH2] are 0.306 µM and > 20 µM.
The matching figures for `CC(=O)N1CCC[C@]12CC=CCCCC1(CCCC=CCCCOC(=O)N3CC[C@@](C(=O)N[C@@H](Cc4ccsc4)C(=O)N[C@@H](Cc4csc5ccccc45)C(=O)N[C@@H](CCC(N)=O)C(N)=O)(C3)NC(=O)[C@H](CC(C)C)NC(=O)[C@H](Cc3ccccc3)NC(=O)[C@H](C)NC(=O)[C@H](C)NC(=O)[C@H](CC(=O)O)NC(=O)[C@H](CC(=O)OCCSSc3ccccc3)NC1=O)NC(=O)[C@H](CC(C)(C)C)NC(=O)[C@H](CC(=O)O)NC2=O` (stereo partly drawn) [I-1954, Ac-PL3-Asp-Npg-B5-[EtSSPh]AspE-Asp-Ala-Ala-Phe-Leu-PyrS2-3Thi-BztA-Gln-NH2]: 0.994 µM and > 20 µM.
In the same order, the values of `CC(=O)N1CCC[C@]12CC=CCCCC1(CCCC=CCCCOC(=O)N3CC[C@@](C(=O)N[C@@H](Cc4ccsc4)C(=O)N[C@@H](Cc4csc5ccccc45)C(=O)N[C@@H](CCC(N)=O)C(N)=O)(C3)NC(=O)[C@H](CC(C)C)NC(=O)[C@H](Cc3ccccc3)NC(=O)[C@H](C)NC(=O)[C@H](C)NC(=O)[C@H](CCC(=O)OCCSSc3ccccc3)NC(=O)[C@H](CC(=O)O)NC1=O)NC(=O)[C@H](CC(C)(C)C)NC(=O)[C@H](CC(=O)O)NC2=O` (stereo partly drawn) [I-1958, Ac-PL3-Asp-Npg-B5-Asp-[EtSSPh]GluE-Ala-Ala-Phe-Leu-PyrS2-3Thi-BztA-Gln-NH2] are 1.54 µM and > 20 µM.
Turning to `CCCCCCSSCCOC(=O)C[C@@H]1NC(=O)[C@]2(CC=CCCCC3(CCCC=CCCCOC(=O)N4CC[C@@](C(=O)N[C@@H](Cc5ccsc5)C(=O)N[C@@H](Cc5csc6ccccc56)C(=O)N[C@@H](CCC(N)=O)C(N)=O)(C4)NC(=O)[C@H](CC(C)C)NC(=O)[C@H](Cc4ccccc4)NC(=O)[C@H](C)NC(=O)[C@H](C)NC(=O)[C@H](CC(=O)O)NC(=O)[C@H](CC(=O)O)NC3=O)NC(=O)[C@H](CC(C)(C)C)NC1=O)CCCN2C(C)=O` (stereo partly drawn) [I-1959, Ac-PL3-[EtSSHex]AspE-Npg-B5-Asp-Asp-Ala-Ala-Phe-Leu-PyrS2-3Thi-BztA-Gln-NH2], the results for the IC50 in experiment [1] (setting [3]) and in experiment [2] were 0.412 µM and > 20 µM, respectively.
Consider `CCCCCCSSCCOC(=O)C[C@@H]1NC(=O)C2(CCCC=CCCCOC(=O)N3CC[C@@](C(=O)N[C@@H](Cc4ccsc4)C(=O)N[C@@H](Cc4csc5ccccc45)C(=O)N[C@@H](CCC(N)=O)C(N)=O)(C3)NC(=O)[C@H](CC(C)C)NC(=O)[C@H](Cc3ccccc3)NC(=O)[C@H](C)NC(=O)[C@H](C)NC(=O)[C@H](CC(=O)O)NC1=O)CCCC=CC[C@]1(CCCN1C(C)=O)C(=O)N[C@@H](CC(=O)O)C(=O)N[C@@H](CC(C)(C)C)C(=O)N2` (stereo partly drawn) [I-1961, Ac-PL3-Asp-Npg-B5-[EtSSHex]AspE-Asp-Ala-Ala-Phe-Leu-PyrS2-3Thi-BztA-Gln-NH2], for which the IC50 in experiment [1] (setting [3]) is 2.1 µM; in experiment [2], > 20 µM.
In the same order, the values of `CCCCCCSSCCOC(=O)C[C@@H]1NC(=O)[C@H](CC(=O)O)NC(=O)C2(CCCC=CCCCOC(=O)N3CC[C@@](C(=O)N[C@@H](Cc4ccsc4)C(=O)N[C@@H](Cc4csc5ccccc45)C(=O)N[C@@H](CCC(N)=O)C(N)=O)(C3)NC(=O)[C@H](CC(C)C)NC(=O)[C@H](Cc3ccccc3)NC(=O)[C@H](C)NC(=O)[C@H](C)NC1=O)CCCC=CC[C@]1(CCCN1C(C)=O)C(=O)N[C@@H](CC(=O)O)C(=O)N[C@@H](CC(C)(C)C)C(=O)N2` (stereo partly drawn) [I-1962, Ac-PL3-Asp-Npg-B5-Asp-[EtSSHex]AspE-Ala-Ala-Phe-Leu-PyrS2-3Thi-BztA-Gln-NH2] are 1.6 µM and > 20 µM.
In the same order, the values of `CCSSCCOC(=O)C[C@@H]1NC(=O)[C@]2(CC=CCCCC3(CCCC=CCCCOC(=O)N4CC[C@@](C(=O)N[C@@H](Cc5ccsc5)C(=O)N[C@@H](Cc5csc6ccccc56)C(=O)N[C@@H](CCC(N)=O)C(N)=O)(C4)NC(=O)[C@H](CC(C)C)NC(=O)[C@H](Cc4ccccc4)NC(=O)[C@H](C)NC(=O)[C@H](C)NC(=O)[C@H](CC(=O)O)NC(=O)[C@H](CC(=O)O)NC3=O)NC(=O)[C@H](CC(C)(C)C)NC1=O)CCCN2C(C)=O` (stereo partly drawn) [I-1963, Ac-PL3-[EtSSEt]AspE-Npg-B5-Asp-Asp-Ala-Ala-Phe-Leu-PyrS2-3Thi-BztA-Gln-NH2] are 0.326 µM and 25.6 µM.
On to `CCSSCCOC(=O)C[C@@H]1NC(=O)[C@H](CC(=O)O)NC(=O)C2(CCCC=CCCCOC(=O)N3CC[C@@](C(=O)N[C@@H](Cc4ccsc4)C(=O)N[C@@H](Cc4csc5ccccc45)C(=O)N[C@@H](CCC(N)=O)C(N)=O)(C3)NC(=O)[C@H](CC(C)C)NC(=O)[C@H](Cc3ccccc3)NC(=O)[C@H](C)NC(=O)[C@H](C)NC1=O)CCCC=CC[C@]1(CCCN1C(C)=O)C(=O)N[C@@H](CC(=O)O)C(=O)N[C@@H](CC(C)(C)C)C(=O)N2` (stereo partly drawn) [I-1965, Ac-PL3-Asp-Npg-B5-Asp-[EtSSEt]AspE-Ala-Ala-Phe-Leu-PyrS2-3Thi-BztA-Gln-NH2], for which the figures for the half-inhibitory concentration (IC50) in experiment [1] (setting [3]) and in experiment [2] were 0.633 µM and 25.2 µM, respectively.
The matching figures for `CC(=O)N1CCC[C@]12CC=CCCCC[C@@](C)(C(=O)N[C@@H](CC(=O)O)C(=O)N[C@@H](CC(=O)O)C(=O)N[C@@H](C)C(=O)N[C@@H](C)C(=O)N[C@@H](Cc1ccccc1)C(=O)N[C@@H](CC(C)C)C(=O)NC(C)(C)C(=O)N[C@@H](Cc1ccsc1)C(=O)N[C@@H](Cc1csc3ccccc13)C(=O)N[C@@H](CCC(N)=O)C(N)=O)NC(=O)[C@H](CC(C)(C)C)NC(=O)[C@H](CC(=O)O)NC2=O` [I-1978, Ac-PL3-Asp-Npg-S6-Asp-Asp-Ala-Ala-Phe-Leu-Aib-3Thi-BztA-Gln-NH2]: 0.145 µM and > 20 µM.
In the same order, the values of `CC(=O)N1CCC[C@]12CC=CC[C@@](C)(C(=O)N[C@@H](CC(=O)O)C(=O)N[C@@H](CC(=O)O)C(=O)N[C@@H](C)C(=O)N[C@@H](C)C(=O)N[C@@H](Cc1ccccc1)C(=O)N[C@@H](CC(C)C)C(=O)NC(C)(C)C(=O)N[C@@H](Cc1ccsc1)C(=O)N[C@@H](Cc1csc3ccccc13)C(=O)N[C@@H](CCC(N)=O)C(N)=O)NC(=O)[C@H](CC(C)(C)C)NC(=O)[C@H](CC(=O)O)NC2=O` [I-1980, Ac-PL3-Asp-Npg-S3-Asp-Asp-Ala-Ala-Phe-Leu-Aib-3Thi-BztA-Gln-NH2] are 0.236 µM and > 20 µM.
